Assay results reported in the NIST ThermoML archive (doi:10.1021/je400472v).

Experiment: mean ionic activity coefficient (dimensionless); mn = molality of the nth substance listed, in mol/kg
Conditions: 101 kPa, Liquid

[Cl-].[Cl-].[Sr+2] [strontium chloride] + O
Conditions	mean ionic activity coefficient
283.15 K, m1 = 0.01	0.732
283.15 K, m1 = 0.02	0.668
283.15 K, m1 = 0.05	0.58
283.15 K, m1 = 0.1	0.519
283.15 K, m1 = 0.2	0.47
283.15 K, m1 = 0.3	0.45
293.15 K, m1 = 0.01	0.728
293.15 K, m1 = 0.02	0.663
293.15 K, m1 = 0.05	0.575
293.15 K, m1 = 0.1	0.513
293.15 K, m1 = 0.2	0.464
293.15 K, m1 = 0.3	0.444
298.15 K, m1 = 0.01	0.726
298.15 K, m1 = 0.02	0.661
298.15 K, m1 = 0.05	0.571
298.15 K, m1 = 0.1	0.509
298.15 K, m1 = 0.2	0.459
298.15 K, m1 = 0.3	0.439
298.15 K, m1 = 0.4	0.43
298.15 K, m1 = 0.5	0.428
298.15 K, m1 = 0.6	0.43
298.15 K, m1 = 0.7	0.435
298.15 K, m1 = 0.8	0.442
298.15 K, m1 = 0.9	0.451
298.15 K, m1 = 1	0.462
298.15 K, m1 = 1.2	0.489
298.15 K, m1 = 1.4	0.522
298.15 K, m1 = 1.6	0.562
298.15 K, m1 = 1.8	0.609
298.15 K, m1 = 2	0.665
298.15 K, m1 = 2.5	0.849
298.15 K, m1 = 3	1.12
298.15 K, m1 = 3.5	1.524
298.15 K, m1 = 3.52	1.544
303.15 K, m1 = 0.01	0.724
303.15 K, m1 = 0.02	0.658
303.15 K, m1 = 0.05	0.569
303.15 K, m1 = 0.1	0.507
303.15 K, m1 = 0.2	0.457
303.15 K, m1 = 0.3	0.437
313.15 K, m1 = 0.01	0.72
313.15 K, m1 = 0.02	0.653
313.15 K, m1 = 0.05	0.563
313.15 K, m1 = 0.1	0.5
313.15 K, m1 = 0.2	0.45
313.15 K, m1 = 0.3	0.429
323.15 K, m1 = 0.01	0.715
323.15 K, m1 = 0.02	0.648
323.15 K, m1 = 0.05	0.556
323.15 K, m1 = 0.1	0.493
323.15 K, m1 = 0.2	0.442
323.15 K, m1 = 0.3	0.421
333.15 K, m1 = 0.01	0.71
333.15 K, m1 = 0.02	0.642
333.15 K, m1 = 0.05	0.549
333.15 K, m1 = 0.1	0.485
333.15 K, m1 = 0.2	0.434
333.15 K, m1 = 0.3	0.413
